Measurements published in patent US20130023532A1, “INDAZOLYL-PYRIMIDINES AS KINASE INHIBITORS” (priority 2010, published 2013).
Structures can show the parent of a compound that is named as a salt.

Target: T1, RIPK2 (Homo sapiens, UniProt O43353)
T1 construct: Full length FLAG His tagged RIPK2 was purified from a Baculovirus expression system; FLAG (N); 6His (N); made in house; host or cells: Spodoptera frugiperda (Sf9) insect cells, baculovirus
Assay: Fluorescent polarization based binding assay at the ATP binding pocket of RIPK2
Settings: FP competition with fluorescently labeled ATP competitive ligand (5 nM); full length FLAG His tagged RIPK2; mean of a minimum of 2 experiments; read-out: mean pIC50 (converted)
From the text: A fluorescent polarization based binding assay was developed to quantitate interaction of novel test compounds at the ATP binding pocket of RIPK2, by competition with a fluorescently labeled ATP competitive ligand. Full length FLAG His tagged RIPK2 was purified from a Baculovirus expression system and was used at a final assay concentration of twice the KDapparent. A fluorescent labeled ligand (5-({[2-({[3-({4-[(5-hydroxy-2-methylphenyl)amino]-2-pyrimidinyl}amino)phenyl]carbonyl}amino)ethyl]amino}carbonyl)-2-(6-hydroxy-3-oxo-3H-xanthen-9-yl)benzoic acid, prepared as described below) was used at a final assay concentration of 5 nM. Both the enzyme and ligand were prepared in solutions in 50 mM HEPES pH7.5, 150 mM NaCl, 10 mM MgCl2, 1 mM DTT, and 1 mM CHAPS. Test compounds were prepared in 100% DMSO and 100 nL was dispensed to individual wells of a multiwell plate. Next, 5 ul RIPK2 was added to the test compounds at twice the final assay concentration, and incubated at room temperature for 10 minutes. […] Finally, samples were read on an instrument capable of measuring fluorescent polarization. Test compound inhibition was expressed as percent (%) inhibition of internal assay controls.
For concentration response experiments, normalized data were fit and pIC50 s determined using conventional techniques. […]

T1 sequence (O43353 whole entry): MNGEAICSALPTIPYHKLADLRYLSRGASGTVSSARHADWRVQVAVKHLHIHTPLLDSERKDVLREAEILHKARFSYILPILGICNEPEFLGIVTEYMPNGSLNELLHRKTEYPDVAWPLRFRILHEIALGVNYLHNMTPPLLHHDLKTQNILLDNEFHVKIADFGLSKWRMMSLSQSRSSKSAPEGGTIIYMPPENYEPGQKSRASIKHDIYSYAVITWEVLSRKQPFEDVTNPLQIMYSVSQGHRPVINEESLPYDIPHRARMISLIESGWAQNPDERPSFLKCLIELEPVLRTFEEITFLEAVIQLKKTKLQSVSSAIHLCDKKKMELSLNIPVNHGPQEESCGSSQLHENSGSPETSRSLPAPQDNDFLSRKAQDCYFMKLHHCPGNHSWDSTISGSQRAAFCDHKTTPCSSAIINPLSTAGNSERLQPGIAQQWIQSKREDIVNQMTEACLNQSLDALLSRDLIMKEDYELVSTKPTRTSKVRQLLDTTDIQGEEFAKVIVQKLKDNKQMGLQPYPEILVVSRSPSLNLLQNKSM

| SMILES | IC50 |
| --- | --- |
| COc1ccc2[nH]nc(Nc3ccnc(Nc4cc(OC)c(OC)c(OC)c4)n3)c2c1 [Example 12, N^4-[5-(methyloxy)-1H-indazol-3-yl]-N^2-[3,4,5-tris(methyloxy)phenyl]-2,4-pyrimidinediamine] | 7.94 nM |
| COc1ccc2[nH]nc(Nc3ccnc(Nc4ccc(F)c(S(C)(=O)=O)c4)n3)c2c1 [Example 27, N^2-[4-fluoro-3-(methylsulfonyl)phenyl]-N^4-[5-(methyloxy)-1H-indazol-3-yl]-2,4-pyrimidinediamine trifluoroacetate] | 50.1 nM |
